This note sets out measurements from patent US7030236B2, “Antisense oligonucleotides tarageting folate receptor alpha, and the use thereof” (priority 2001, dated 2006).

Common to all, as to assay type: cell-based, human
One data set has as its system αhFR mRNA. Kind of data set: Northern analysis of αhFR mRNA in KB cells. The settings on record: oligonucleotide treatment over night. The text has this:
Expression of αhFR is known to be elevated in cancer. In particular, increased αhFR expression is found in 90% of human epithelial ovarian malignancies and is associated with a poor disease prognosis. It is possible that over expression of αhFR confers a growth survival advantage in ovarian cancer cells, since folates are involved in numerous cellular processes, including DNA and RNA synthesis.
Northern Analysis. KB cells were maintained over night in growth media containing sense or antisense unmodified DNA oligonucleotides at the indicated concentrations. Total RNA was isolated (Promega, Madison, Wis.) and samples containing 20 μg of total cellular RNA were resolved on a 1% agarose/0.66M formaldehyde/0.023 3-(N-morpholino) propansulfonic acid gel. The RNA's were transferred to a nitrocellulose membrane (Schleicher and Schuell, Portran, Keene, N.H.) and then hybridized to a random ^32P-labeled αhFR cDNA probe as described previously.

Data set [1] has as its system KB cells. Briefly: KB cell viability after oligonucleotide treatment, total protein content by Bradford assay. The settings on record: compared to S-6 control. The protocol:
The effect of AS-6 on the viability of cultured KB cells was evaluated (FIG. 3). […] The decrease in cell viability upon AS-6 treatment correlates well with the decrease in newly synthesized αhFR expression, as determined in FIG. 2B.
Cell Viability Experiments. Stable transfectants of pRc/CMV αhFR-S or pRc/CMV ahFR-AS constructs were achieved by the calcium phosphate method using the Stratagene Eukaryotic Transfection kit (La Jolla, Calif.) and selected in 500 μg/ml G418. Phosphorothioated-modified αhFR sense (S-6) and antisense (AS-6) DNA oligonucleotides were transfected into 6×10^4 KB cells by incubating oligonucleotides in 1 ml of serum-free media for 6 hrs. Transfections were terminated by the addition of 1 ml of serum-containing low-folate media. Total protein content was assessed 36 hours later by Bradford assay (Biorad, Hercules, Calif.).

For the next data set, the system named is T47D. Briefly: XTT cell survival after Tf-liposome-mediated oligonucleotide transfection, T47D. The protocol: (§1) FIGS. 10A–10B: FIGS. 10A and 10B depict the effect of various concentrations of αhFR AS-6 oligonucleotide (A) and S-6 oligonucleotide (B) on survival of cultured human breast cancer cells. End-modified phosphorothioated oligonucleotides were transfected into 2×10^4 cells at the indicated concentrations for 6 hrs using a Tf-liposome-mediated delivery complex. Cell survival was assessed 48 hrs after transfection by XTT assay.
(§2) To determine the effect of αhFR antisense oligonucleotide, on the survival of cultured breast cancer cells, we transfected AS6 oligonucleotide and S6 oligonucleotide at various concentrations via the Tf-liposome-mediated gene delivery system.
On the technique in general: Tetrazolium assays rely on reduction of a dye to a coloured formazan, in cell work by metabolically active cells.

In a further data set the test system is MDA-MB-231. Briefly: XTT cell survival after Tf-liposome-mediated oligonucleotide transfection, MDA-MB-231. The settings on record: MDA-MB-231, end-modified phosphorothioated oligo, 6 hrs transfection, XTT at 48 hrs. The protocol:
as §1, §2

Another data set deals with MDA-MB-435. Kind of data set: XTT cell survival after Tf-liposome-mediated oligonucleotide transfection, MDA-MB-435. The settings on record: MDA-MB-435, end-modified phosphorothioated oligo, 6 hrs transfection, XTT at 48 hrs. The method, then: as §1, §2
A further data set has as its system MDA-MB-435 cells. Kind of data set: Chemosensitization to doxorubicin, XTT assay. The settings on record: 500 nM oligo, doxorubicin 24 hrs after transfection, XTT after 72 hrs. The method, then: FIG. 11: FIG. 11 depicts chemosensitization of MDA-MB-435 breast cancer cells after combination treatment with αhFR AS6 oligonucleotide and doxorubicin. MDA-MB-435 cells were plated at 2×10^4 cells/well and transfected with 500 nM of αhFR AS6 or S6 end-modified phosphorothioated oligonucleotide. After 24 hrs, cells were incubated with media containing doxorubicin at the indicated concentrations. Cell survival was determined by XTT assay after 72 hrs.
To determine whether or not αhFR antisense oligonucleotide sensitizes breast cancer cells to chemotherapy, the following experiment was carried out. 500 nM of AS6 oligonucleotide or S6 oligonucleotide was transfected into MDA-MB-435 cells and treated with varying concentrations of doxorubicin, twenty-four hours after transfection. Cell survival was determined after 72 hrs by XTT assay and the degree of sensitization was calculating by determining the ratio of IC50 values of the combined treatment relative to that of the S6 oligonucleotide and untreated controls. In FIG. 11, chemosensitization of MDA-MD-435 cells by AS6 oligonucleotide was about 5 fold (IC50 S6/IC50 AS6=5) relative to the sense control and about 10 fold (IC50 UT/IC50 AS6=10) relative to the untreated control.

Data set [2] deals with KB cells. Kind of data set: KB cell viability after cytofectin transfection of ribozymes, Cell Counting Kit-8 colorimetric assay. The method, then: The viability of KB cells transfected with wild type or control mutant and sense ribozymes was assessed by colormetric assay. […] (FIG. 6A). […] Approximately 75% of the initial transfected ribozyme amounts disappeared after 1 hour. The quick half-life of ribozyme integrity may explain the unexpected lowered effect of αhFR ribozymes versus antisense oligonucleotides on KB cell survival.
In vitro synthesized wild type, mutant or sense-oriented ribozymes were transfected into 6×10^4 KB cells with cytofectin (Glen Research, Rockville, Md.), according to manufacturers instruction. Transfections were terminated by replacing media with 1 ml of serum-containing low-folate media. Cell viability was quantitated after 36 hours by the Cell Counting Kit-8 (Dojindo, Gaithersburg, Md.). For ribozyme decay analysis, in vitro synthesized ribozymes were radiolabeled with [α-^32P]-rCTP and rGTP using the riboprobe kit (Promega, Madison, Wis.). Radiolabeld ribozymes were transfected by the cytofectin method as described above. Total RNA was extracted at the indicated time points using the RNeasy mini kit (Quiagen, Valencia, Calif.), fractionated on a 6% sequencing gel and visualized by autoradiography. Amounts of intact internalized ^32P-labeled ribozyme were determined using the NIH image software.

As a reminder, the IC50 is the concentration that inhibits the measured activity by half. In the case of “AS-6: antisense 21-mer DNA GCTCTTGCAGGTGTAGGAGGT, αhFR ORF 462–442, SEQ ID NO. 4; unmodified or phosphorothioated (antisense GCTCTTGCAGGTGTAGGAGGT; DNA, backbone and methylation of C not given here; phosphorothioate modified, described as end-modified)”, the “αhFR mRNA by Northern analysis” value in the data set on αhFR mRNA is recorded as “remained unaffected”. Besides, the “decrease in overall protein content” value is given as 20% with KB cells [1] (10 μM phosphorothioate-modified oligo) and 60% with KB cells [1] (50 μM phosphorothioate-modified oligo). In addition, the IC50 in the data set with T47D (T47D, end-modified phosphorothioated oligo, 6 hrs transfection, XTT at 48 hrs) was 633 nM; in the data set with MDA-MB-231 it was 600 nM; in the data set on MDA-MB-435 it was 416 nM. Further, in the data set with MDA-MB-435 cells (relative to sense control), the “chemosensitization to doxorubicin, IC50 S6/IC50 AS6” value is on record as “about 5 fold”. For the same molecule, in the data set with MDA-MB-435 cells (relative to untreated control), the “chemosensitization to doxorubicin, IC50 UT/IC50 AS6” value was “about 10 fold”.

With “S6: sense control 21-mer ACCTCCTACACCTGCAAGAGC, 442–462 (sense ACCTCCTACACCTGCAAGAGC; DNA, backbone and methylation of C not given here; S-6 used both unmodified and phosphorothioate-modified, form not tied to measurement, further chemistry not fully specified) [reference compound]”, the “effect on survival of model breast cancer cell lines” value with T47D (stated for the breast cancer cell lines together (T47D, MDA-MB-231, MDA-MB-435), versus AS6) was “significantly less effect”.

In the case of “AS-1: antisense 21-mer DNA TGTTGTCATCCGCTGAGCCAT, αhFR open reading frame 21–1, SEQ ID NO. 2 (antisense TGTTGTCATCCGCTGAGCCAT; unmodified DNA)”, in the data set with αhFR mRNA, the “αhFR mRNA by Northern analysis” value is listed as “remained unaffected”.

Turning to “AS-2: antisense 21-mer DNA AGGAGGTCAGCTGAGCAGCCA, αhFR open reading frame 780–760, SEQ ID NO. 3 (antisense AGGAGGTCAGCTGAGCAGCCA; unmodified DNA)”, the “αhFR mRNA by Northern analysis” value with αhFR mRNA is listed as “remained unaffected”.

B1: Rz 187/210 WT: wild type hammerhead ribozyme targeted to 5′ region of αhFR open reading frame; encoding DNA in Table II (nucleic acid)
DNA 1: CCCGTCGACAATGCCTGCTGTTTCGTCCTCACGGACTCATCAGCTACCAACACAAGCTTCCC
DNA 2: GGGCAGCTGTTACGGACGACAAAGCAGGAGTGCCTGAGTAGTCGATGGTTGTGTTCGAAGGG
modifications: target site or template, no part of the molecule; chemistry not given here; one strand is listed 3' to 5'
On to B1, for which, in the data set on KB cells [2] (KB cells, compared to control mutant and sense ribozymes), the “decrease in cell survival” value is given as “approximately 60%”.

B2: Rz 187/210 MUT: mutant control ribozyme, G in the catalytic structure changed to A (nucleic acid)
DNA 1: CCCGTCGACAATGCCTGCTGTTTCGTCCTCACGGATTCATCAGCTACCAACACAAGCTTCCC
DNA 2: GGGCAGCTGTTACGGACGACAAAGCAGGAGTGCCTAAGTAGTCGATGGTTGTGTTCGAAGGG
modifications: target site or template, no part of the molecule; chemistry not given here; one strand is listed 3' to 5'
notes: mutant control ribozyme, G in the catalytic structure changed to A
As for B2, in the data set with KB cells [2] (KB cells transfected with ribozyme), the “effect on cell survival” value is on record as “little, if any effect”.
